Measured values from ChEMBL document CHEMBL1201862, “PubChem BioAssay data set” (2004).
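Exposure lasted 48 hours, with cells grown in 96-well plates and compounds tested at five concentrations. At the GI50, growth is halved.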 Activity calls are given as the source filed them. Rule as the data show it: active = GI50 up to about 1.1 µM and inactive = higher. Residues, ends and D or L forms follow the SMILES beside them.

Legend:
Experiment in all cases: NCI anticancer screen, dose series, 48 h
A498 = test system: A498
A549 = test system: A549
BT-549 = test system: BT-549
HT-29 = test system: HT-29
Hs-578T = test system: Hs-578T
LOX IMVI = test system: LOX IMVI
Malme-3M = test system: Malme-3M
NCI-H522 = test system: NCI-H522
NCI/ADR-RES = test system: NCI/ADR-RES
OVCAR-5 = test system: OVCAR-5
RXF 393 = test system: RXF 393
SF-295 = test system: SF-295
SK-OV-3 = test system: SK-OV-3
SN12C = test system: SN12C
SR = test system: SR
T47D = test system: T47D
U-251 = test system: U-251
UO-31 = test system: UO-31
NCI-H23 = test system: NCI-H23
SF-539 = test system: SF-539

Row | SMILES | GI50 (A498) | GI50 (A549) | GI50 (BT-549) | GI50 (HT-29) | GI50 (Hs-578T) | GI50 (LOX IMVI) | GI50 (Malme-3M) | GI50 (NCI-H522) | GI50 (NCI/ADR-RES) | GI50 (OVCAR-5) | GI50 (RXF 393) | GI50 (SF-295) | GI50 (SK-OV-3) | GI50 (SN12C) | GI50 (SR) | GI50 (T47D) | GI50 (U-251) | GI50 (UO-31) | GI50 (NCI-H23) | GI50 (SF-539)
1 | Cc1sc2c(c1C)C(=O)c1cccn1-2 | 60 µM (inactive) | 60.5 µM (inactive) | 47.2 µM (inactive) | 53.8 µM (inactive) | 37.7 µM (inactive) | 64.9 µM (inactive) | > 100 µM (inactive) | 92 µM (inactive) | > 100 µM (inactive) | > 100 µM (inactive) | 59 µM (inactive) | > 100 µM (inactive) | > 100 µM (inactive) | 78.2 µM (inactive) | 19.3 µM (inactive) | 39.8 µM (inactive) | 61.7 µM (inactive) | 54.7 µM (inactive) | – | –
2 | Cc1cc(-c2nc3ccccc3s2)ccc1NC(=O)[C@H](C)N | 14.4 µM (inactive) | 13.7 µM (inactive) | 15.7 µM (inactive) | 14.4 µM (inactive) | 24.3 µM (inactive) | 5.06 µM (inactive) | 24 µM (inactive) | 24.2 µM (inactive) | 18.3 µM (inactive) | 0.441 µM (active) | 12.3 µM (inactive) | 15.3 µM (inactive) | 14.9 µM (inactive) | 14.7 µM (inactive) | 5.2 µM (inactive) | 0.128 µM (active) | 15 µM (inactive) | 5.78 µM (inactive) | 16.5 µM (inactive) | –
3 | C=C1NC(=O)C(CC(C(=O)C(=O)Nc2c(C)cccc2C(C)(C)C)C(=O)c2ccc3ccccc3c2)C(=O)N1 (centres undefined) | > 100 µM (inactive) | > 100 µM (inactive) | > 100 µM (inactive) | > 100 µM (inactive) | > 100 µM (inactive) | > 100 µM (inactive) | – | – | > 100 µM (inactive) | > 100 µM (inactive) | > 100 µM (inactive) | > 100 µM (inactive) | > 100 µM (inactive) | > 100 µM (inactive) | > 100 µM (inactive) | > 100 µM (inactive) | > 100 µM (inactive) | > 100 µM (inactive) | > 100 µM (inactive) | > 100 µM (inactive)
4 | CCC(C)C(NC(=O)C(CC(C)C)NC(=O)CNC(=O)C(NC(=O)C1CCCN1C(=O)C(CC(C)C)NC(=O)C(N)Cc1ccccc1)C(C)CC)C(=O)NC(CC(C)C)C(N)=O (centres undefined) (H-FLPIGLIL-NH2; configuration not given here) | > 75 µM (inactive) | > 75 µM (inactive) | > 75 µM (inactive) | > 75 µM (inactive) | > 75 µM (inactive) | > 75 µM (inactive) | > 75 µM (inactive) | > 75 µM (inactive) | > 75 µM (inactive) | > 75 µM (inactive) | – | > 75 µM (inactive) | > 75 µM (inactive) | > 75 µM (inactive) | > 75 µM (inactive) | > 75 µM (inactive) | > 75 µM (inactive) | > 75 µM (inactive) | > 75 µM (inactive) | > 75 µM (inactive)
5 | Fc1cccc2nc(-c3ccccc3)cc(OCc3ccccc3)c12 | > 100 µM (inactive) | 83.4 µM (inactive) | > 100 µM (inactive) | > 100 µM (inactive) | > 100 µM (inactive) | > 100 µM (inactive) | > 100 µM (inactive) | 71.8 µM (inactive) | > 100 µM (inactive) | > 100 µM (inactive) | 69.5 µM (inactive) | > 100 µM (inactive) | > 100 µM (inactive) | > 100 µM (inactive) | > 100 µM (inactive) | 89.3 µM (inactive) | > 100 µM (inactive) | > 100 µM (inactive) | > 100 µM (inactive) | –
6 | C=C1C(=O)C2(C)OC2(C)C1C(=O)O (centres undefined) | – | > 100 µM (inactive) | > 100 µM (inactive) | > 100 µM (inactive) | > 100 µM (inactive) | > 100 µM (inactive) | – | > 100 µM (inactive) | > 100 µM (inactive) | > 100 µM (inactive) | > 100 µM (inactive) | > 100 µM (inactive) | > 100 µM (inactive) | > 100 µM (inactive) | > 100 µM (inactive) | > 100 µM (inactive) | > 100 µM (inactive) | > 100 µM (inactive) | > 100 µM (inactive) | > 100 µM (inactive)
7 | Cc1cc(Cl)nc(NC(=O)CSc2ccc(Cl)cc2)n1 | 72.9 µM (inactive) | > 100 µM (inactive) | > 100 µM (inactive) | > 100 µM (inactive) | 77.6 µM (inactive) | > 100 µM (inactive) | 64.7 µM (inactive) | 95.7 µM (inactive) | > 100 µM (inactive) | > 100 µM (inactive) | > 100 µM (inactive) | > 100 µM (inactive) | – | > 100 µM (inactive) | > 100 µM (inactive) | > 100 µM (inactive) | > 100 µM (inactive) | > 100 µM (inactive) | > 100 µM (inactive) | –
8 | O=C(c1ccccc1)c1c2ccccn2c2cccc[n+]12 | 71.8 µM (inactive) | 82.4 µM (inactive) | > 100 µM (inactive) | > 100 µM (inactive) | > 100 µM (inactive) | > 100 µM (inactive) | > 100 µM (inactive) | – | > 100 µM (inactive) | > 100 µM (inactive) | > 100 µM (inactive) | > 100 µM (inactive) | > 100 µM (inactive) | – | > 100 µM (inactive) | > 100 µM (inactive) | > 100 µM (inactive) | – | – | > 100 µM (inactive)
9 | Cc1cc2cc3c(cc2c(-c2ccc(N)cc2)n1)OCO3 | – | 74.1 µM (inactive) | > 100 µM (inactive) | 22.2 µM (inactive) | 51.3 µM (inactive) | – | 86.9 µM (inactive) | 42.5 µM (inactive) | 72.9 µM (inactive) | 36.6 µM (inactive) | – | 34.2 µM (inactive) | > 100 µM (inactive) | 39.4 µM (inactive) | 15.6 µM (inactive) | 29.6 µM (inactive) | 62.5 µM (inactive) | 29.2 µM (inactive) | 61.2 µM (inactive) | > 100 µM (inactive)
10 | COC1=CC(=O)c2nc3ccccc3c3ccnc1c23 | – | 1.12 µM (inactive) | 14.6 µM (inactive) | 3.24 µM (inactive) | 5.48 µM (inactive) | 0.565 µM (active) | 1.58 µM (inactive) | 2.22 µM (inactive) | 3.71 µM (inactive) | 12.5 µM (inactive) | 2.61 µM (inactive) | 4.48 µM (inactive) | 26.9 µM (inactive) | 6.82 µM (inactive) | 1.56 µM (inactive) | 5.71 µM (inactive) | 5.05 µM (inactive) | 4.35 µM (inactive) | 1.35 µM (inactive) | 2.92 µM (inactive)
11 | CC1(C)N=C(N)N=C(N)N1c1cccc(OCc2cccc([N+](=O)[O-])c2)c1 | 99.5 µM (inactive) | 4.18 µM (inactive) | > 53.1 µM (inactive) | 6.03 µM (inactive) | > 100 µM (inactive) | 9.27 µM (inactive) | > 53.1 µM (inactive) | 8.91 µM (inactive) | > 100 µM (inactive) | > 30.6 µM (inactive) | > 100 µM (inactive) | > 55.7 µM (inactive) | > 100 µM (inactive) | 9.98 µM (inactive) | – | 38.3 µM (inactive) | 2.88 µM (inactive) | > 100 µM (inactive) | 7.26 µM (inactive) | 17.6 µM (inactive)
12 | CC1=CC[C@H](C[C@H](C#CCCCC2OCCO2)O[Si](C(C)C)(C(C)C)C(C)C)C(=O)CC1 | > 100 µM (inactive) | > 100 µM (inactive) | > 100 µM (inactive) | > 100 µM (inactive) | > 100 µM (inactive) | > 100 µM (inactive) | > 100 µM (inactive) | – | > 100 µM (inactive) | > 100 µM (inactive) | > 100 µM (inactive) | > 100 µM (inactive) | > 100 µM (inactive) | > 100 µM (inactive) | > 100 µM (inactive) | > 100 µM (inactive) | > 100 µM (inactive) | > 100 µM (inactive) | > 100 µM (inactive) | –
13 | Cc1c(/C=N/NC(=S)Nc2ccccc2)c(=O)n(-c2ccccc2)n1C | 71.4 µM (inactive) | – | > 100 µM (inactive) | > 100 µM (inactive) | > 100 µM (inactive) | > 100 µM (inactive) | – | – | 22.1 µM (inactive) | – | > 100 µM (inactive) | > 100 µM (inactive) | > 100 µM (inactive) | – | > 100 µM (inactive) | > 100 µM (inactive) | > 100 µM (inactive) | 57.5 µM (inactive) | > 100 µM (inactive) | > 100 µM (inactive)
14 | CCC/C(Cl)=N\OC(=O)Nc1ccc(OC(F)(F)F)cc1 | 23.8 µM (inactive) | 20.2 µM (inactive) | 20.9 µM (inactive) | 18.2 µM (inactive) | 28.1 µM (inactive) | 2.72 µM (inactive) | 1.68 µM (inactive) | 1.08 µM (active) | 6.98 µM (inactive) | 19.6 µM (inactive) | 16 µM (inactive) | 16.3 µM (inactive) | 18.5 µM (inactive) | 8.57 µM (inactive) | – | 2.79 µM (inactive) | 27 µM (inactive) | 8.53 µM (inactive) | 21.4 µM (inactive) | 16.7 µM (inactive)
15 | CC1(C)CC(=O)c2c(nc3c(ccc4ccccc43)c2-c2ccc(NC(=O)CCC(=O)Nc3ccc(-c4c5c(nc6c4ccc4ccccc46)CC(C)(C)CC5=O)cc3)cc2)C1 | – | > 100 µM (inactive) | > 100 µM (inactive) | > 100 µM (inactive) | > 100 µM (inactive) | > 100 µM (inactive) | – | > 100 µM (inactive) | > 100 µM (inactive) | > 100 µM (inactive) | > 100 µM (inactive) | > 100 µM (inactive) | > 100 µM (inactive) | > 100 µM (inactive) | > 100 µM (inactive) | > 100 µM (inactive) | > 100 µM (inactive) | > 100 µM (inactive) | – | > 100 µM (inactive)
